Reference: US20050143463A1, “Method of inhibiting angiogenesis” (THE QUEEN ELIZABETH HOSPITAL RESEARCH FOUNDATION INC., priority 2002, published 2005)
Like-named read-outs stand apart in the source and are kept apart here.

Assays:
[1] = Aqueous solubility; assay type: physicochemical
[2] = tested on: Human umbilical vein endothelial cells (HUVEC); experiment: HUVEC proliferation assay (tritiated thymidine uptake); assay type: cell-based; settings: for inhibition of HUVEC proliferation in vitro, dose dependent (in words): dose dependent manner
Experimental: Human umbilical vein endothelial cells (HUVEC) were seeded in 96-well flat bottomed tissue culture plates at a density of 2.5-5×10^4 cells/well and treated with various dilutions of agents. Cells were cultured in RPMI medium containing 20% FCS, Penicillin/Streptomycin in a 5% CO2 atmosphere at 37° C. After 24 to 48 hours of incubation, cells were pulsed with 1 μCi of tritiated thymidine for 6 hours. The pulsed cells were trypsinised to detach from the wells and then harvested in a TOMTEC Cell Harvester onto glass fibre filters, which were dried and immersed in scintillation fluid and counted in a Wallac Microbeta scintillation counter. The results were reported as mean cpm±SD.

[3] = tested on: corneal neovascularisation; experiment: Mouse corneal vascularisation model (cornea scratched and infected with Pseudomonas aeruginosa 6294); assay type: in vivo, BALB/c mice; settings: for vascularisation of the cornea compared to Groups 1 and 2 (photomicrographs): Group 3, 200 μmol/10 μL topical; for Percentage of animals showing vascularisation in the infected eye / animals showing vascularisation in the infected eye (number/total): 12-MTA 200 μmol/10 μL topical, every second day from day 4; for corneal neovascularisation in mice (in words): mouse, in vivo
Text: To induce neovascularisation in the cornea of mice, cornea were scratched and infected with Pseudomonas aeruginosa as essentially described in Cole, N., Willcox, M. D. P., Fleiszig, S. M. J., Stapleton, F., Bao, S., Tout, S., Husband, A. J. (1998) “Different strains of Pseudomonas aeruginosa isolated from ocular infections or inflammation display distinct corneal pathologies in an animal model.” Curr. Eye Res., 17:730-735.
Briefly, stock cultures of P. aeruginosa 6294 stored in 30% glycerol at −70° C. were inoculated into 10 mL of tryptone soya broth (Oxoid Ltd, Sydney, Australia). Cultures were prepared as previously described (Cole et al. (1998) Curr. Eye Res. 17:730-735) and suspended in phosphate buffered saline (PBS) to a concentration of 4×10^8 cfu (colony forming units)/ml. Bacterial concentration was adjusted turbidimetrically and the dose confirmed retrospectively by viable counts.
Inbred 6-8 week old BALB/c mice were anaesthetised with Averin (125 mg/kg, intraperitoneally) and the corneal surfaces of the eyes were incised with a sterile 27 gauge needle. 5 μL of the bacterial suspension (2.0×10^6 cfu) of strain 6294 was pipetted directly onto the wounded cornea of the left eye only. The right eye of each animal served as a control and was scratched but not infected. A minimum of eight mice per treatment group were used.
12-MTA at 200 μmol/10 μL was prepared as an emulsion in unpreserved paraffin and lanolin ophthalmic ointment base (Polyvisc, Alcon, Belgium) for topical application. Animals were divided into three treatment groups: Group 1 received no treatment; Group 2 received 10 μL of vehicle topically to the cornea per treatment to both the challenged and scratch control eye; and Group 3 received 10 μL of the 12-MTA as described above to both the challenged and scratch control eyes. The treatment schedule was begun four days after challenge and then every second day until the termination of the experiment 14 days post-challenge.
Mice were examined prior to bacterial challenge, immediately subsequent to bacterial challenge and 7 and 14 days post-challenge by a masked observer. The animals were anaesthetised for examination as described above and the corneas were examined at 48× magnification under white light using an FS2 photo slit-lamp biomicroscope (Topcon Corporation, Tokyo, Japan). At 7 and 14 days post-challenge, following the white light examination, 1% sodium fluorescein was instilled and the corneas viewed under UV light. Grades of severity of corneal damage were made and measurement of the extent and incursion of vessels into the central cornea were made.
Measurements were examined for significance using non-parametric Kruskal-Wallis and Mann Whitney U analysis.
For histological examination of corneas, mice were sacrificed at 14 days post-challenge. The eyes were immediately enucleated, fixed in neutral buffered formalin and embedded in paraffin. […] sections were cut and stained with haematoxylin and eosin for histopathological examination.

[4] = 50 μM, tritiated thymidine uptake
[5] = 100 μM, tritiated thymidine uptake
[6] = 200 μM, tritiated thymidine uptake
[7] = 400 μM, tritiated thymidine uptake
[8] = 800 μM, tritiated thymidine uptake

In the case of `CCC(C)CCCCCCCCCCC(=O)O` (stereo not shown) [12-MTA, 12-methyltetradecanoic acid], the aqueous solubility [1] is reported as “poor”, the “% Inhibition of HUVEC proliferation” value ([2]; 50 μM, percentage of control cells with no added agent (Table 1)) is reported as 13.3% and the Average [2, 4] is reported as 18781.3 cpm. For the same compound, the “Sample 1” value [2, 4] was 19272 cpm, the “Sample 2” value [2, 4] was 19942 cpm and the “Sample 3” value [2, 4] was 17130 cpm. The Average [2, 5] was 17593.0 cpm, the “Sample 1” value [2, 5] was 20367 cpm and the “Sample 2” value [2, 5] was 16963 cpm. For the same compound, the “Sample 3” value [2, 5] was 15449 cpm, the Average [2, 6] was 15707.7 cpm and the “Sample 1” value [2, 6] was 18491 cpm. For the same compound, the “Sample 2” value [2, 6] was 15435 cpm, the “Sample 3” value [2, 6] was 13197 cpm and the “HUVEC proliferation (in words)” value ([2]; 400 μM concentration, tritiated thymidine uptake) was “inhibited”. For the same compound, the Average [2, 7] was 12104.7 cpm, the “Sample 1” value [2, 7] was 12558 cpm and the “Sample 2” value [2, 7] was 13837 cpm. For the same compound, the “Sample 3” value [2, 7] was 9919 cpm, the “microscopic examination of the cells” value ([2]; 800 μM) was “appearance of apoptotic cells” and the Average [2, 8] was 9.0 cpm. The “Sample 1” value [2, 8] was 11 cpm, the “Sample 2” value [2, 8] was 7 cpm and the “Sample 3” value [2, 8] was 9 cpm. It also gave an inhibition at 50 µM ([2]; Homo sapiens, HUVEC, 50 μM, percentage of control cells with no added agent (Table 1)) of 13%, an inhibition at 100 µM ([2]; Homo sapiens, HUVEC, 100 μM, percentage of control cells with no added agent (Table 1)) of 18.7% and an inhibition at 200 µM ([2]; Homo sapiens, HUVEC, 200 μM, percentage of control cells with no added agent (Table 1)) of 27.5%. For the same compound, the inhibition at 400 µM ([2]; Homo sapiens, HUVEC, 400 μM concentration, percentage of control cells with no added agent (Table 3), read-out: Percentage inhibition of HUVEC proliferation) was 32%, the inhibition at 400 µM ([2]; Homo sapiens, HUVEC, 400 μM, percentage of control cells with no added agent (Table 1), read-out: % Inhibition of HUVEC proliferation) was 44.1% and the inhibition at 800 µM ([2]; Homo sapiens, HUVEC, 800 μM, percentage of control cells with no added agent (Table 1)) was 99%. For the same compound, the inhibition at 100 µM ([2]; Homo sapiens, HUVEC, 24 h, 100 μM 12-MTA, 24 hours (Table 2)) was 24.8%, the inhibition at 200 µM ([2]; Homo sapiens, HUVEC, 24 h, 200 μM 12-MTA, 24 hours (Table 2)) was 30.2% and the cell viability ([2]; concentrations between 50 to 400 μM) was “good viability”. The “inhibition of HUVEC proliferation in vitro, dose dependent (in words)” value [2] was “inhibited in a dose response manner”, the “inhibition of HUVEC proliferation in vitro, dose dependent (in words)” value ([2]; listed as 12-methyl tetradecanoic acid) was “inhibit the proliferation” and the “effect on scratch control (uninfected) eyes” value ([3]; 200 μmol/10 μL topical, any time point) was “does not affect the cornea”. The “blood vessel formation in the corneal stroma (histological examination)” value ([3]; 14 days post-challenge, Group 3) was “reduced blood vessel formation”, the “vascularisation of the cornea compared to Groups 1 and 2 (photomicrographs)” value ([3]; Day 7) was “reduced vascularisation” and the “Percentage of animals showing vascularisation in the infected eye” value ([3]; Day 7 post-challenge) was 40%. The “animals showing vascularisation in the infected eye (number/total)” value ([3]; Day 7 post-challenge) was 4/10, the “vascularisation of the cornea compared to Groups 1 and 2 (photomicrographs)” value ([3]; Day 14) was “reduced vascularisation” and the “Percentage of animals showing vascularisation in the infected eye” value ([3]; Day 14 post-challenge) was 50%. For the same compound, the “animals showing vascularisation in the infected eye (number/total)” value ([3]; Day 14 post-challenge) was 5/10, the “animals with mild ocular response” value ([3]; Group 3, Day 14 post-challenge) was 60% and the “animals with severe ocular response” value ([3]; Group 3, Day 14 post-challenge) was 20%. For the same compound, the “median score of severity of corneal damage (ocular response)” value ([3]; Group 3, Day 14 post-challenge) was 1.65 (range 0-4), the “animals with a persistent epithelial defect” value ([3]; Group 3, first examination) was 20% and the “animals with mild ocular response” value ([3]; Group 3, first examination) was 50%. For the same compound, the “animals with severe ocular response” value ([3]; Group 3, first examination) was 10%, the “median score of severity of corneal damage (ocular response)” value ([3]; Group 3, first examination (Day 7 implied, not given)) was 2.1 (range 0.54) and the “corneal neovascularisation in mice (in words)” value [3] was “inhibited corneal neovascularization”. The “corneal neovascularisation in mice (in words)” value ([3]; listed as 12-methlytetradecanoic acid) was “inhibits corneal neovascularisation”.
